This test deals with Nanoluciferase-BRD9 fusion protein (Homo sapiens (Human), UniProt Q9H8M2). In words: SYO1 BRD9 NanoLuc degradation assay. It is filed as cell-based. The note with it: SYO-1 cells expressing 3×FLAG-NLuc-BRD9, 6 hours, read-out: SYO1 BRD9-NanoLuc degradation IC50. Put shortly:
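Degradation was read as loss of nanoluciferase signal (Nano-Glo) after 6 h compound exposure in a stable SYO-1 line carrying 3×FLAG-NLuc-BRD9 (8000 cells/well). Normalised between DMSO (high) and a 1 μM known BRD9 degrader (low).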

Results on 45 compounds are retold here after patent US11414416B1, “Compounds and uses thereof” (Foghorn Therapeutics Inc., priority 2019, dated 2022).

Read-outs that look alike come from different tables or passages of the source.

Chain of Nanoluciferase-BRD9 fusion protein (Q9H8M2 whole entry, the tested form may be a part): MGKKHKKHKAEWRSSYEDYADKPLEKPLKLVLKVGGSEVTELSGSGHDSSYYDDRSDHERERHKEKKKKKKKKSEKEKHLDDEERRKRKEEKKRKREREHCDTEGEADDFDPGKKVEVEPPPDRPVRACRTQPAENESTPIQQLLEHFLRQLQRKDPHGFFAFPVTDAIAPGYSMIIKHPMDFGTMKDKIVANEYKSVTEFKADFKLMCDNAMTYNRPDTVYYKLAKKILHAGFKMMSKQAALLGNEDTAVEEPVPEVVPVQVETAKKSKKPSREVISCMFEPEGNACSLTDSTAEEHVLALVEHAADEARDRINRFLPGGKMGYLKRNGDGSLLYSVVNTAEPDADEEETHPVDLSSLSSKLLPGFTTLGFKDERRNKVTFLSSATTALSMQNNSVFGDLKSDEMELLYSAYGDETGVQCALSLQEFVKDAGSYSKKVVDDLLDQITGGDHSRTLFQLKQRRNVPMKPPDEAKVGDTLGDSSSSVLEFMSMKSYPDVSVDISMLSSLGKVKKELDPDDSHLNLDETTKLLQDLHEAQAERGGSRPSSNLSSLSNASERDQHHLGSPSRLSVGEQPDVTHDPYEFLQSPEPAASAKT

For `COc1cc(-c2cn(C)c(=O)c3cnccc23)cc(OC)c1CN1CCC2(CC1)CN(c1ccc3c(c1)C(=O)N(C1CC(=O)NC1=O)C3=O)C2` (stereo not drawn) [Compound D383], where the note is “Table 5C”, the DC50 was > 1000 nM. `COc1cc(-c2ccc(=O)n(C)c2)cc(OC)c1CN1CCN(c2ccc3c(c2)C(=O)N(C2CCC(=O)NC2=O)C3=O)CC1` (stereo not drawn) [Compound D344]: the DC50 (Table 5B) was < 10 nM. In the case of `COc1cc(-c2cn(C)c(=O)c3cnccc23)cc(OC)c1CN1CCC2(CC1)CC(NC(=O)CCOCCOc1cccc3c1C(=O)N(C1CCC(=O)NC1=O)C3=O)C2` (stereo not drawn) [Compound D82], the DC50 (Table 5A) is 10 to 100 nM. For `COc1cc(-c2cn(C)c(=O)c3cnccc23)cc(OC)c1CN1CC(CC(=O)N2CCCC3(CC(Oc4ccc5c(c4)C(=O)N([C@H]4CCC(=O)NC4=O)C5=O)C3)C2)C1` (stereo partly drawn) [Compound D265], the DC50 (Table 5B) was in the range of 100 to 1000 nM.

Take `COc1cc(-c2cc(C)c(=O)n(C)c2)cc(OC)c1CN1CC(C#Cc2ccc3c(c2)CN(C2CCC(=O)NC2=O)C3=O)C1` (stereo not drawn) [Compound D440]: the DC50 (Table 5C) is < 10 nM. `COc1cc(-c2cn(C)c(=O)c3cnccc23)cc(OC)c1CN1CCC2(CCC(C(=O)CCC#Cc3ccc4c(c3)C(=O)N(C3CCC(=O)NC3=O)C4=O)C2)CC1` (stereo not drawn) [Compound D220]: the DC50 (Table 5B) is < 10 nM. As to `COc1cc(-c2cn(C)c(=O)c3cnccc23)cc(OC)c1CN1CC(CC(=O)N2CC(Oc3ccc4c(c3)C(=O)N(C3CCC(=O)NC3=O)C4=O)C2)C1` (stereo not drawn) [Compound D233], where the note is “Table 5B”, the DC50 is 100 to 1000 nM. The same measure, in the same setting: as for `COc1cc(-c2cc(C)c(=O)n(C)c2)cc(OC)c1CN1CCC2CN(c3ccc4c(c3)C(=O)N(C3CCC(=O)NC3=O)C4=O)C21` (stereo not drawn) [Compound D339], the figure is < 10 nM; as for `COc1cc(-c2cn(C)c(=O)c3cnccc23)cc(OC)c1CN1CCN(C(=O)CC#Cc2ccc3c(c2)C(=O)N(C2CCC(=O)NC2=O)C3=O)CC1` (stereo not drawn) [Compound D316], < 10 nM. In the case of `COc1cc(-c2cn(C)c(=O)c3cnccc23)cc(OC)c1CN1CC(Oc2ccc3c(c2)C(=O)N(C2CCC(=O)NC2=O)C3)C1` (stereo not drawn) [Compound D378], the DC50 (Table 5C) was < 10 nM. `COc1cc(-c2cn(C)c(=O)c3cnccc23)cc(OC)c1Cn1cc(COC2CN(c3ccc4c(c3)C(=O)N(C3CCC(=O)NC3=O)C4=O)C2)nn1` (stereo not drawn) [Compound D271]: for the setting “Table 5B”, the DC50 was < 10 nM. As for `CCCn1cc(-c2cc(OC)c(CN3CCC4(C3)CN(c3ccc5c(c3)C(=O)N(C3CCC(=O)NC3=O)C5)C4)c(OC)c2)cc(C(F)F)c1=O` (stereo not drawn) [Compound D401], for the setting “Table 5C”, the DC50 was < 10 nM. Same read-out and setting: as for `COc1cc(-c2cn(C)c(=O)c(C)n2)cc(OC)c1CN1CCC2(CC1)CN(c1ccc3c(c1)C(=O)N(C1CCC(=O)NC1=O)C3)C2` (stereo not drawn) [Compound D461], the figure is 10 to 100 nM.

For the compound `COc1cc(-c2cn(C)c(=O)c3cnccc23)cc(OC)c1CN1CCC2(CC1)CN(C(=O)CC#Cc1ccc3c(c1)C(=O)N(C1CCC(=O)NC1=O)C3=O)C2` (stereo not drawn) [Compound D318], for the setting “Table 5B”, the DC50 is < 10 nM. With `COc1cc(-c2cn(C)c(=O)c3cnccc23)cc(OC)c1CN1CCC(n2cc(CN3CC(Oc4ccc5c(c4)C(=O)N(C4CCC(=O)NC4=O)C5=O)C3)nn2)CC1` (stereo not drawn) [Compound D280], the DC50 (Table 5B) was < 10 nM. As for `CCn1cc2c(=O)n(C)cc(-c3cc(OC)c(CN4CCC5(CC4)CN(c4ccc6c(c4)C(=O)N(C4CCC(=O)NC4=O)C6)C5)c(OC)c3)c2n1` (stereo not drawn) [Compound D417], the DC50 (Table 5C) is < 10 nM. Still for that read-out and setting: as for `COc1cc(-c2cn(C)c(=O)c3cnccc23)cc(OC)c1CN1CCC2(CC1)CN(c1ccc3c(c1)C(=O)N(C1CCCNC1=O)C3)C2` (stereo not drawn) [Compound D389], the figure is > 1000 nM.

Consider `COc1cc(-c2cn(C)c(=O)c3cnccc23)cc(OC)c1CN1CC2(CCN(CC#Cc3ccc4c(c3)C(=O)N(C3CCC(=O)NC3=O)C4=O)C2)C1` (stereo not drawn) [Compound D306], for which the DC50 (Table 5B) is < 10 nM. Consider `COc1cc(-c2cn(C)c(=O)c3cnccc23)cc(OC)c1CN1CC(CC(=O)NC2CC3(C2)CC(Oc2ccc4c(c2)C(=O)N(C2CCC(=O)NC2=O)C4=O)C3)C1` (stereo not drawn) [Compound D78], for which, under “Table 5A”, the DC50 fell in the range of 10 to 100 nM.

On to `COc1cc(-c2cn(C)c(=O)c3cnccc23)cc(OC)c1CN1CC(N2CCN(c3ccc4c(c3)C(=O)N(C3CCC(=O)NC3=O)C4=O)CC2)C1` (stereo not drawn) [Compound D327], for which the DC50 (Table 5B) is < 10 nM. As to `COc1cc(-c2cn(C)c(=O)c3cnccc23)cc(OC)c1CN(C)CCCCCCCCNc1cccc2c1CN(C1CCC(=O)NC1=O)C2=O` (stereo not drawn) [DD4], for the setting “Table 5B”, the DC50 was < 10 nM. On the same count and under the same terms, as for `COc1cc(-c2cn(C)c(=O)c3cnccc23)cc(OC)c1CN1CCC2(CC1)CN(CCCC#Cc1ccc3c(c1)C(=O)N(C1CCC(=O)NC1=O)C3=O)C2` (stereo not drawn) [Compound D196], the figure is 10 to 100 nM. As to `COc1cc(-c2cn(C)c(=O)c3cnccc23)cc(OC)c1CN1CCC2(CC1)CN(CCOc1ccc3c(c1)C(=O)N(C1CCC(=O)NC1=O)C3=O)CCO2` (stereo not drawn) [Compound D49, 5-[2-(9-[[2,6-dimethoxy-4-(2-methyl-1-oxo-2,7-naphthyridin-4-yl)phenyl]methyl]-1-oxa-4,9-diazaspiro[5.5]undecan-4-yl)ethoxy]-2-(2,6-dioxopiperidin-3-yl)isoindole-1,3-dione], the DC50 (Table 5A) was > 1000 nM. For `COc1cc(-c2cn(C)c(=O)c3cnccc23)cc(OC)c1CN(C)C(=O)CCCCNC1CC2(C1)CC(Oc1ccc3c(c1)C(=O)N(C1CCC(=O)NC1=O)C3=O)C2` (stereo not drawn) [Compound D260], under “Table 5B”, the DC50 was < 10 nM. Still for that read-out and setting: as for `COc1cc(-c2cn(C)c(=O)c3cnccc23)cc(OC)c1CN1CCC2(CC1)CN(C(=O)CCC#Cc1ccc3c(c1)C(=O)N(C1CCC(=O)NC1=O)C3=O)C2` (stereo not drawn) [Compound D217], the figure is < 10 nM.

Turning to `COc1cc(-c2cn(C)c(=O)c3cnccc23)cc(OC)c1CN1CC(CC(=O)N2CC3(CCC(Oc4ccc5c(c4)C(=O)N(C4CCC(=O)NC4=O)C5=O)C3)C2)C1` (stereo not drawn) [Compound D79], where the note is “Table 5A”, the DC50 is 100 to 1000 nM. With `COc1cc(-c2cn(C)c(=O)c3cnn(C)c23)cc(OC)c1CN1CC(CN2CCC3(CC2)CN(c2ccc4c(c2)CN(C2CCC(=O)NC2=O)C4=O)C3)C1` (stereo not drawn) [Compound D369], the DC50 (Table 5B) was < 10 nM. The same measure, in the same setting: with `COc1cc(-c2cn(C)c(=O)c3cnccc23)cc(OC)c1CN1CCC2(CC1)CCN(CCCC#Cc1ccc3c(c1)C(=O)N(C1CCC(=O)NC1=O)C3=O)C2` (stereo not drawn) [Compound D213] the figure was < 10 nM. `COc1cc(-c2cn(C)c(=O)c3cnccc23)cc(OC)c1CN1CCC(c2cc(COc3ccc4c(c3)C(=O)N(C3CCC(=O)NC3=O)C4=O)on2)CC1` (stereo not drawn) [Compound D322]: the DC50 (Table 5B) is < 10 nM. For the compound `COc1cc(-c2cn(C)c(=O)c3cnccc23)cc(OC)c1CN(C)C(=O)CCCCN1CCC2(CC1)CN(c1ccc3c(c1)C(=O)N(C1CCC(=O)NC1=O)C3=O)C2` (stereo not drawn) [Compound D186], the DC50 (Table 5B) was < 10 nM. Still for that read-out and setting: as for `COc1cc(-c2cc(C)c(=O)n(C)c2C)cc(OC)c1CN1CCN(c2ccc3c(c2)C(=O)N(C2CCC(=O)NC2=O)C3=O)CC1` (stereo not drawn) [Compound D343], the figure is < 10 nM. Consider `COc1cc(-c2cn(C)c(=O)c3cnccc23)cc(OC)c1CN1CC(CC(=O)N2CC3(CC(Oc4ccc5c(c4)C(=O)N(C4CCC(=O)NC4=O)C5=O)C3)C2)C1` (stereo not drawn) [Compound D234], for which the DC50 (Table 5B) was 10 to 100 nM. The same measure, in the same setting: as for `COc1cc(-c2cn(C)c(=O)c3cnccc23)cc(OC)c1CN1CCC(c2ncc(COc3ccc4c(c3)C(=O)N(C3CCC(=O)NC3=O)C4=O)o2)CC1` (stereo not drawn) [Compound D326], the figure is < 10 nM; as for `COc1cc(-c2cn(C)c(=O)c3cnccc23)cc(OC)c1CN(C)CCn1cc(CCOc2ccc3c(c2)C(=O)N(C2CCC(=O)NC2=O)C3=O)nn1` (stereo not drawn) [Compound D274], < 10 nM; as for `COc1cc(-c2cc(C)c(=O)n(C)c2)cc(OC)c1CN1CCC(n2cc([C@H](C)Oc3ccc4c(c3)C(=O)N(C3CCC(=O)NC3=O)C4=O)nn2)CC1` (stereo partly drawn) [Compound D333], < 10 nM.

Consider `COc1cc(-c2cn(C)c(=O)c3cnccc23)cc(OC)c1CN(C)C1CCN(CCOc2ccc3c(c2)C(=O)N(C2CCC(=O)NC2=O)C3=O)CC1` (stereo not drawn) [Compound D51, 5-[2-[4-([[2,6-dimethoxy-4-(2-methyl-1-oxo-2,7-naphthyridin-4-yl)phenyl]methyl] (methyl)amino)piperidin-1-yl]ethoxy]-2-(2,6-dioxopiperidin-3-yl)isoindole-1,3-dione; formic acid], for which, where the note is “Table 5A”, the DC50 is < 10 nM. Regarding `COc1cc(-c2cn(C)c(=O)c3cnccc23)cc(OC)c1CN1CCC2(CC1)CN(c1ccnc(C(=O)NC3CCC(=O)NC3=O)n1)C2` (stereo not drawn) [Compound D391], the DC50 (Table 5C) was in the range of 100 to 1000 nM. Turning to `COc1cc(-c2cc(C(F)F)c(=O)n(C)c2)cc(OC)c1-c1ccc2c(c1)C(=O)N(C1CCC(=O)NC1=O)C2` (stereo not drawn) [Compound D451], for the setting “Table 5C”, the DC50 is 10 to 100 nM. In the case of `COc1cc(-c2cn(C)c(=O)c3cnccc23)cc(OC)c1CN1CC2(CC(C(=O)NCCCCCCCCNc3cccc4c3C(=O)N(C3CCC(=O)NC3=O)C4=O)C2)C1` (stereo not drawn) [Compound D20], the DC50 (Table 5A) was < 10 nM. For the compound `COc1cc(-c2cn(C)c(=O)cn2)cc(OC)c1CN1CCC2(CC1)CN(c1ccc3c(c1)C(=O)N(C1CCC(=O)NC1=O)C3)C2` (stereo not drawn) [Compound D429], the DC50 (Table 5C) was > 1000 nM.

For `COc1cc(-c2cn(C)c(=O)c3cnccc23)cc(OC)c1CN(C)CCn1cc(COCCOc2ccc3c(c2)C(=O)N(C2CCC(=O)NC2=O)C3=O)nn1` (stereo not drawn) [Compound D275], the DC50 (Table 5B) is < 10 nM. Take `COc1cc(-c2cn(C)c(=O)c3cnccc23)cc(OC)c1CN(C)CCCCN1CC2(CCN(c3ccc4c(c3)C(=O)N(C3CCC(=O)NC3=O)C4=O)CC2)C1` (stereo not drawn) [Compound D223]: the DC50 (Table 5B) was < 10 nM. On the same count and under the same terms, with `COc1cc(-c2cn(C)c(=O)c3cnccc23)cc(OC)c1CN1CCC2(CC1)CCN(CC#Cc1ccc3c(c1)C(=O)N(C1CCC(=O)NC1=O)C3=O)C2` (stereo not drawn) [Compound D308] the figure was < 10 nM.

Turning to `COc1cc(-c2cn(C)c(=O)c3cnccc23)cc(OC)c1CN1CC(CC(=O)N2CCC3(CC2)CC(Oc2ccc4c(c2)C(=O)N(C2CCC(=O)NC2=O)C4=O)C3)C1` (stereo not drawn) [Compound D184], the DC50 (Table 5B) was < 10 nM. As to `COc1cc(-c2cn(C)c(=O)c3cnccc23)cc(OC)c1CN1CCC(n2cc(CCOc3ccc4c(c3)C(=O)N(C3CCC(=O)NC3=O)C4=O)nn2)CC1` (stereo not drawn) [Compound D279], the DC50 (Table 5B) is < 10 nM.
